Data set [1] has as its system Human Bronchial Epithelial Cells. As to the kind of experiment: Absorption rate across human bronchial epithelial cells. The data set is classed as in vitro ADME. Particulars: n=3. The protocol:
Bronchial cells (dog, human, sheep, or rodent cells) are seeded at a density of 0.25×10^6/cm^2 on a porous Transwell-Col collagen-coated membrane with a growth area of 1.13 cm^2 grown at an air-liquid interface in hormonally defined media that promotes a polarized epithelium. From 12 to 20 days after development of an air-liquid interface (ALI) the cultures are expected to be >90% ciliated, and mucins will accumulate on the cells. To ensure the integrity of primary airway epithelial cell preparations, the transepithelial resistance (R1) and transepithelial potential differences (PD), which are indicators of the integrity of polarized nature of the culture, are measured. […] Concentrations are determined by measuring intrinsic fluorescence of each sodium channel blocker using a Fluorocount Microplate Flourometer or HPLC. Quantitative analysis employs a standard curve generated from authentic reference standard materials of known concentration and purity. […]
In the first series of assays, the interaction of test compounds in KBR as an “ASL” stimulant are applied to the apical surface of human airway epithelial cells grown in the T-Col insert system. […] In instances where the fluorescence properties of the test molecule are not adequate for such characterizations, radiolabeled compounds are used for these assays. […]

A further data set can be described thus: Human plasma stability. The data set is classed as in vitro ADME. Particulars: over 4 hours.
A short description of data set [2]: Human plasma protein binding. It is filed as in vitro ADME. Particulars: n=6, read-out: Human Plasma Protein Binding, bound to plasma proteins (converted).
Data set [3] in a line: Clearance from the ocular surface (extraction from PRT threads, UPLC). The data set is classed as in vivo, Rats, Sprague Dawley. The protocol: Procedure for P-1046 (Compound 15 Formula I, aka I, aka P-1046, aka 1046): […]
Extraction from PRT Threads:
All PRT threads were collected in eppendorf tubes and stored at −20 C until the time of drug concentration analysis. P-1046 was extracted from threads and analyzed as follows:
(§1) • 1. 200 μL of 70% ACN (70% ACN, 30% H2O) was added into sample tubes which have threads in them. • 2. Tubes from Step 1 were vortexed for 30 seconds and sonicated for 1 minute to fully immerse the threads. • 3. The sample solutions were incubated for 4 hours at room temperature. • 4. Samples were vortexed again for 30 seconds. • 5. 75 μL, of the each sample solution (from step 4) was removed into 96-well UPLC plate with an additional 75 μL of mobile phase A (5 mM ammonium formate, 0.1% formic acid in H2O) added into each sample well. • 6. Analytical standards (10 mM, 1 mM, 100 µM, 10 µM, 1 µM, 100 nM, Buffer) were prepared identically to the thread solutions. • 7. Drug concentrations from all samples were analyzed by UPLC. Solubility and Stability Testing for Compound 15 (Formula I, aka I, aka P-1046, aka 1046): Procedure for Solubility and Stability Evaluation: • 1. Prepare 2.8% NaCl and 25 mM citrate buffer, pH of the solution 4.2. The osmolality of the solution is approximately 940 mOsM. • 2. Add appropriate amount of buffer solution to a test compound to make approximate concentration of 10 mg/mL. • 3. Vortex the solution for 15 seconds, sonicate for 30 seconds, again vortex for 60 seconds and visually observe the solution. • 4. Calculate final concentration of the solution by a spectrophotometer. • Remove a portion of solution and dilute it to 1:10 ratio. Put this solution at 50° C. for the accelerated stability study for 10 days. • Obtain stability data by HPLC analysis • 5. Prepare 2.8% NaCl and 25 mM citrate buffer, pH of the solution 4.2. The osmolality of the solution is approximately 940 mOsM. • 6. Add appropriate amount of buffer solution to a test compound to make approximate concentration of 10 mg/mL. • 7. […]

The nature of data set [4]: Solubility and accelerated stability in citrate buffer. The data set is classed as physicochemical. To be noted: pH 4.2 citrate buffer with 2.8% NaCl. The protocol:
as §1, with “ratio.” for “ratio. Put this solution at 50° C. for the accelerated stability study for 10 days. • Obtain stability data by HPLC analysis • 5. Prepare 2.8% NaCl and 25 mM citrate buffer, pH of the solution 4.2. The osmolality of the solution is approximately 940 mOsM. • 6. Add appropriate amount of buffer solution to a test compound to make approximate concentration of 10 mg/mL. • 7.”

Consider 1 molecule from patent US10159672B2 (PARION SCIENCES, INC., priority 2011, dated 2018).

On to `CN(C)C(=O)[C@H](CCCCNC(=N)N)NC(=O)[C@H](CCc1ccc(CCCCNC(=N)NC(=O)c2nc(Cl)c(N)nc2N)cc1)N(C)C` [Compound I, 3,5-diamino-6-chloro-N-(N-(4-(4-((S)-3-(dimethylamino)-4-((S)-1-(dimethylamino)-6-guanidino-1-oxohexan-2-ylamino)-4-oxobutyl)phenyl)butyl)carbamimidoyl)pyrazine-2-carboxamide], for which the “Absorption Rate Across Human Bronchial Epithelial Cells” value in data set [1] was 0.12±0.05 nM/cm^2/min. Besides, the “Human Plasma Stability” value in the data set “Human plasma stability” is “No metabolism detected”. In addition, the fraction unbound in data set [2] is 0.2. The “Clearance from the ocular surface, profile” value in data set [3] (all concentrations tested) is recorded as “apparent bi-phasic clearance”. Further, the “Concentration on ocular surface during the slow clearance phase vs IC50” value in data set [3] (dosed concentration >1 mM, 30 to 120 minutes post-dose) was “well above the IC50”. In data set [3] (post-dose, followed by slow clearance phase 30 to 120 minutes), the “Time by which the majority of the drug is cleared from the ocular surface” value was at most 30 min. In data set [4] (10 days at 50° C.), the “Stability (HPLC), degradation” value was “No degradation”. The solubility in data set [4] (aqueous buffer, thermodynamic from solid, highest concentration tested) is at least 8800 µg/mL.
